According to patent publication US5696153A, “Therapeutic regimen for treating patients” (priority 1996, dated 1997):
Entries after “also recorded” stand apart in the source; their conditions may differ.

Tests used:
[1] = system: SK-N-AS cells; assay: Cytopathologic changes after taxol exposure; format: cell-based, human; conditions: 1 μg/ml for 1 hour
Excerpt: Apoptosis was recognized as acute change in the cells. These included chromatin clumping at the periphery of the nucleus, loss of cytoplasmic detail and finally apoptotic bodies, either readily detached or floating with several being phagocytosed by surrounding cells.

[2] = Human toxicity, Q4D schedule (Study X); format: in vivo, human patients
Excerpt: […] It should be understood that these patients were deemed "salvage" cases almost all of whom had not responded to conventional treatment. All were otherwise thought to be beyond approved therapeutic regimens. Thus, the results and evaluation are anecdotal in nature and are not part of a controlled and statistical valid clinical trial.
[…] All were previously treated with chemotherapy and radiation for cancers of the breast (5), ovarian (2), brain (3), prostate (1), head and neck (4), bone (2), leiomyosarcoma (2), and melanoma (1).

[3] = system: SK-N-AS neuroblastoma tumor in nude mice; assay: Studies B and D: antitumor activity, Q4Dx3 vs Q4Hx3; format: in vivo
[4] = system: recurrent or refractory solid tumors of childhood; assay: Study Y: pilot study of children with recurrent or refractory cancer; format: in vivo, human (children)
Method: A pilot study of children with recurrent or refractory cancer was initiated under our direction. Ten patients with a variety of recurrent or refractory solid tumors of childhood were treated with the same dosage and schedule as the adults described above.

[5] = clinical; design: species or system human patients; conditions: human, in vivo, iv
Excerpt: Characteristics of the group of twenty were: male (5); female (15); median age 44 (17-81); ECOG-PS 1 (0-3). All were previously treated with chemotherapy and radiation for cancers of the breast (5), ovarian (2), brain (3), prostate (1), head and neck (4), bone (2), leiomyosarcoma (2), and melanoma (1).

[6] = Toxicity in nude mice (wasting, weight loss); format: in vivo
[7] = system: SK-N-AS neuroblastoma tumor in nude mice; format: in vivo
Excerpt: Five nude mice were maintained in each cage with a fiberglass bonnet in a clean isolation room. All cages and food were sterilized prior to use. Female nude mice were inoculated subcutaneously with 3×10^6 human neuroblastoma (SK-N-AS) tumor cells. Between 8-16 days, tumor growth was evident and measured.

CC(=O)O[C@H]1C(=O)[C@@]2(C)[C@H]([C@H](OC(=O)c3ccccc3)[C@]3(O)C[C@H](OC(=O)[C@H](O)[C@@H](NC(=O)c4ccccc4)c4ccccc4)C(C)=C1C3(C)C)[C@]1(OC(C)=O)CO[C@@H]1C[C@@H]2O [taxol]
time of abnormal mitosis and polyploidy [1]: 36 to 72 h | time of apoptosis [1]: 6 to 24 h | cells altered by taxol ([1]; at 24, 48 and 72 hours): Approximately 30% | toxic reaction and side effects vs twenty-four hour infusion ([2]; 45-120 mg/m^2, 60-180 minutes, Q4D×3): less toxic reaction and side effects than equivalent dosage levels over a twenty-four hour infusion | maximum amount infused without exceeding toxicity limits ([2]; 80 minute interval): 120 mg/m^2 | Alk. Phos. toxicity: A None ([2]; Q4D 60 mg/m^2): 18 | Alk. Phos. toxicity: B Abnormal pre-III, Improved ([2]; Q4D 60 mg/m^2): 3 | Alk. Phos. toxicity: C Abnormal pre-III, Worsened or same ([2]; Q4D 60 mg/m^2): 1 | Alk. Phos. toxicity: D Normal pre-III, Worsened ([2]; Q4D 60 mg/m^2): 1 | Alk. Phos. toxicity: E Grades ([2]; Q4D 60 mg/m^2): 1 | Bilirubin toxicity: A None ([2]; Q4D 60 mg/m^2): 22 | Bilirubin toxicity: B Abnormal pre-III, Improved ([2]; Q4D 60 mg/m^2): 0 | Bilirubin toxicity: C Abnormal pre-III, Worsened or same ([2]; Q4D 60 mg/m^2): 0 | Bilirubin toxicity: D Normal pre-III, Worsened ([2]; Q4D 60 mg/m^2): 1 | Bilirubin toxicity: E Grades ([2]; Q4D 60 mg/m^2): 1 | HB toxicity: A None ([2]; Q4D 60 mg/m^2): 18 | HB toxicity: B Abnormal pre-III, Improved ([2]; Q4D 60 mg/m^2): 1 | HB toxicity: C Abnormal pre-III, Worsened or same ([2]; Q4D 60 mg/m^2): 2 | HB toxicity: D Normal pre-III, Worsened ([2]; Q4D 60 mg/m^2): 2 | HB toxicity: E Grades ([2]; Q4D 60 mg/m^2): 1,4 | PLT. toxicity: A None ([2]; Q4D 60 mg/m^2): 19 | PLT. toxicity: B Abnormal pre-III, Improved ([2]; Q4D 60 mg/m^2): 0 | PLT. toxicity: C Abnormal pre-III, Worsened or same ([2]; Q4D 60 mg/m^2): 3 | PLT. toxicity: D Normal pre-III, Worsened ([2]; Q4D 60 mg/m^2): 1 | PLT. toxicity: E Grades ([2]; Q4D 60 mg/m^2): 3 | SGOT toxicity: A None ([2]; Q4D 60 mg/m^2): 20 | SGOT toxicity: B Abnormal pre-III, Improved ([2]; Q4D 60 mg/m^2): 0 | SGOT toxicity: C Abnormal pre-III, Worsened or same ([2]; Q4D 60 mg/m^2): 0 | SGOT toxicity: D Normal pre-III, Worsened ([2]; Q4D 60 mg/m^2): 3 | WBC toxicity: A None ([2]; Q4D 60 mg/m^2): 15 | WBC toxicity: B Abnormal pre-III, Improved ([2]; Q4D 60 mg/m^2): 0 | WBC toxicity: C Abnormal pre-III, Worsened or same ([2]; Q4D 60 mg/m^2): 2 | WBC toxicity: D Normal pre-III, Worsened ([2]; Q4D 60 mg/m^2): 6 | GGT toxicity: A None ([2]; Q4D 60 mg/m^2, 11 pts): 9 | GGT toxicity: B Abnormal pre-III, Improved ([2]; Q4D 60 mg/m^2, 11 pts): 2 | GGT toxicity: C Abnormal pre-III, Worsened or same ([2]; Q4D 60 mg/m^2, 11 pts): 0 | GGT toxicity: D Normal pre-III, Worsened ([2]; Q4D 60 mg/m^2, 11 pts): 0 | Alb. toxicity: A None ([2]; Q4D 60 mg/m^2, 22 pts): 22 | Alb. toxicity: B Abnormal pre-III, Improved ([2]; Q4D 60 mg/m^2, 22 pts): 0 | Alb. toxicity: C Abnormal pre-III, Worsened or same ([2]; Q4D 60 mg/m^2, 22 pts): 0 | Alb. toxicity: D Normal pre-III, Worsened ([2]; Q4D 60 mg/m^2, 22 pts): 0 | BUN toxicity: A None ([2]; Q4D 60 mg/m^2, 22 pts): 21 | BUN toxicity: B Abnormal pre-III, Improved ([2]; Q4D 60 mg/m^2, 22 pts): 0 | BUN toxicity: C Abnormal pre-III, Worsened or same ([2]; Q4D 60 mg/m^2, 22 pts): 0 | BUN toxicity: D Normal pre-III, Worsened ([2]; Q4D 60 mg/m^2, 22 pts): 0 | Creat toxicity: A None ([2]; Q4D 60 mg/m^2, 22 pts): 21 | Creat toxicity: B Abnormal pre-III, Improved ([2]; Q4D 60 mg/m^2, 22 pts): 0 | Creat toxicity: C Abnormal pre-III, Worsened or same ([2]; Q4D 60 mg/m^2, 22 pts): 0 | Creat toxicity: D Normal pre-III, Worsened ([2]; Q4D 60 mg/m^2, 22 pts): 0 | LDH toxicity: A None ([2]; Q4D 60 mg/m^2, 22 pts): 18 | LDH toxicity: B Abnormal pre-III, Improved ([2]; Q4D 60 mg/m^2, 22 pts): 3 | LDH toxicity: C Abnormal pre-III, Worsened or same ([2]; Q4D 60 mg/m^2, 22 pts): 0 | LDH toxicity: D Normal pre-III, Worsened ([2]; Q4D 60 mg/m^2, 22 pts): 0 | T P toxicity: A None ([2]; Q4D 60 mg/m^2, 22 pts): 21 | T P toxicity: B Abnormal pre-III, Improved ([2]; Q4D 60 mg/m^2, 22 pts): 0 | T P toxicity: C Abnormal pre-III, Worsened or same ([2]; Q4D 60 mg/m^2, 22 pts): 0 | T P toxicity: D Normal pre-III, Worsened ([2]; Q4D 60 mg/m^2, 22 pts): 0 | toxicity or hypersensitivity vs currently recommended dosages ([2]; Q4D regimen, also without pretreatment): reduced toxicity or hypersensitivity reactions | CMAX taxol-associated toxicity ([2]; Q4D schedule): no clinically significant CMAX taxol-associated toxicity | abnormalities on UA., CA^++, Phos, CO2, Cl, Na^+, K^+, Mg^+ ([2]; in vivo): No abnormalities detected | alopecia ([2]; in vivo): 2/4 | diploplia for several hours each day following treatment ([2]; in vivo): One | malaise and fatigue ([2]; in vivo): Four | toxicity of infusion with separated treatment days ([2]; treatment days separated by 3-5 days): toxicity of the taxol infusion was diminished | antitumor activity, Q4D×3 vs Q4H×3 ([3]; 15 mg/kg IP): greater antitumor activity than the Q4H×3 schedule | antitumor activity, Q4D vs QD schedule ([3]; mouse, in vivo): better in the Q4D than in the QD schedule | tumor response on CT scan ([4]; one patient, pelvic embryonal rhabdomyosarcoma): shrinkage of their tumor | decrease in tumor volume ([4]; one patient, recurrent glioblastoma multiforme, after 9 treatments): 30% | progression ([4]; rhabdomyosarcoma patient, shortly following the 9th treatment): developed a brain metastasis | Kp [5]: 0.01 | peripheral blood CMAX [5]: 1400 ng/mL | Cmax ([5]; 0-40 ng/ml CMAX (so in the source)): < 40 ng/mL | half-life ([5]; T1/2 α): 15 min | half-life ([5]; distributive phase T1/2 α): 7 to 20 min | Cmax ([5]; peripheral blood CMAX): 1240 ng/mL | toxicity of dosage ([6]; 10 mg/kg IP Q4D×3, neuroblastoma tumor bearing nude mice): non-toxic dosage | toxicity of schedule ([6]; 15 mg/kg every 4 hours×3 in one day): equally non-toxic | toxicity of schedule ([6]; 15 mg/kg every 4 days×3): equally non-toxic | indications of toxicity (wasting or weight loss) ([6]; Study B, 15 mg/kg IP Q4D×3): no indications of toxicity | antitumor activity in words ([7]; 10 mg/kg IP Q4D×3): antitumor activity ranging from tumor growth inhibition to tumor lysis | variance in response to drug therapy ([7]; 10 mg/kg IP Q4D×3): ranging from tumor lysis to slowed growth | mice with delayed tumor growth ([7]; Study C, 10 mg/kg IP Q4D×3): 4/5 | mice with tumor regression ([7]; Study C, 10 mg/kg IP Q4D×3): 1/5 | tumor sizes or weight gain, day 1 vs day 14 ([7]; Treated Group B, 10 mg/kg IP Q4D×3): no significant difference in tumor sizes or weight gain | weight gain between day 1 and day 14 ([7]; mouse, in vivo): no significant weight gain | Wt, Day #1, MEAN ([7]; mouse, in vivo, ip, 10 mg/kg): 26.6 | Wt, Day #14, MEAN ([7]; mouse, in vivo, ip, 10 mg/kg): 28.8 | Tumor area, Day #1, MEAN ([7]; treated, 10 mg/kg IP Q4D×3, S.E. ±5.1): 60.3 | Tumor area, Day #5, MEAN ([7]; treated, 10 mg/kg IP Q4D×3, S.E. ±21.5): 93 | Tumor area, Day #9, MEAN ([7]; treated, 10 mg/kg IP Q4D×3, S.E. ±23.6): 105.6 | Tumor area, Day #14, MEAN ([7]; treated, 10 mg/kg IP Q4D×3, S.E. ±54.8): 142 | concentration in normal tissues, treated vs controls (10 mg/kg IP Q4D×3, then single 20 mg/kg IP): consistently greater than in nontreated controls; also recorded: consistently greater than in Group A | concentration in tumor vs liver, kidney or lung (after single 20 mg/kg IP): usually greater in tumor tissue compared to liver, kidney or lung | distribution in tumor tissue compared to liver, kidney or lung (mouse, in vivo): four to thirty | Taxol, tumor (treated (Cages II, III): 10 mg/kg Q4D×3, then 20 mg/kg IP 24 h prior, individual mice): 195.24 ng/mg Protein
